Assay results published in patent publication US20200085050A1, “Acyclic Picolinamides as a Seed Treatment” (priority 2017, published 2020).
Like-named read-outs stand apart in the source and are kept apart here.

Assays:
Puccinia triticina = experiment: Seed treatment, wheat brown rust (PUCCRT) foliar disease control; assay type: in vivo
Zymoseptoria tritici = experiment: Seed treatment, wheat leaf blotch (SEPTTR) foliar disease control; assay type: in vivo
Pyricularia oryzae = assay type: in vivo; conditions: for PYRIOR rating of foliar disease control: rice
[1] = tested on: Blumeria graminis f. sp. hordei; experiment: Seed treatment, barley powdery mildew (ERYSGH) foliar disease control; assay type: in vivo
Erysiphe cichoracearum = experiment: Seed treatment, cucumber powdery mildew (ERYSCI) foliar disease control; assay type: in vivo
Rhynchosporium secalis = experiment: Seed treatment, barley scald (RHYNSE) foliar disease control; assay type: in vivo
[2] = tested on: Pseudoperonospora cubensis; experiment: Seed treatment, cucumber downy mildew (PSEUCU) foliar disease control; assay type: in vivo
Phakopsora pachyrhizi = experiment: Seed treatment, soybean rust (PHAKPA) foliar disease control; assay type: in vivo; conditions: at any rate, data not shown
Parastagonospora nodorum = experiment: Seed treatment, wheat glume blotch (LEPTNO) foliar disease control; assay type: in vivo
[3] = tested on: Blumeria graminis f. sp. tritici; experiment: Seed treatment, wheat powdery mildew (ERYSGT) foliar disease control; assay type: in vivo
Cochliobolus sativus = experiment: Seed treatment, spot blotch of barley (COCHSA) foliar disease control; assay type: in vivo
[4] = in vivo
Text: The treated seeds were planted in pots containing soil-less Metro mix within 2 weeks after treatment, and resultant seedling plants were inoculated with respective pathogens as described below. Four pots of the seedlings were inoculated for each treatment rate.

Rhizoctonia solani = experiment: Seed treatment, rice sheath blight (RHIZSO) foliar disease control; assay type: in vivo
[5] = tested on: Colletotrichum lagenarium; experiment: Seed treatment, cucumber anthracnose (COLLLA) foliar disease control; assay type: in vivo
[6] = seed treatment 3.7 g ai/100 kg seeds
[7] = seed treatment 11 g ai/100 kg seeds
[8] = seed treatment 33.3 g ai/100 kg seeds
[9] = seed treatment 100 g ai/100 kg seeds
[10] = seed treatment 300 g ai/100 kg seeds
[11] = seed treatment, summary of Table 2
[12] = seed treatment, summary of Table 5
[13] = seed treatment, summary of Table 3
[14] = seed treatment, summary of Table 4

## COc1ccnc(C(=O)N[C@@H](C)C(=O)O[C@@H](C)C(c2ccc(F)cc2)c2ccc(F)cc2)c1OC(C)=O [I, (S)-1,1-bis(4-fluorophenyl)propan-2-yl (3-acetoxy-4-methoxypicolinoyl)-L-alaninate]
Puccinia triticina; [6]
  PUCCRT rating of foliar disease control: D (0-25)
Puccinia triticina; [7]
  PUCCRT rating of foliar disease control: D (0-25)
Puccinia triticina; [8]
  PUCCRT rating of foliar disease control: D (0-25)
Puccinia triticina; [9]
  PUCCRT rating of foliar disease control: C (26-50)
Puccinia triticina; [10]
  PUCCRT rating of foliar disease control: A (76-100)
Puccinia triticina; [11]
  activity against brown rust (PUCCRT), in words: moderate activity
Zymoseptoria tritici; [6]
  SEPTTR rating of foliar disease control: A (76-100)
Zymoseptoria tritici; [7]
  SEPTTR rating of foliar disease control: A (76-100)
Zymoseptoria tritici; [8]
  SEPTTR rating of foliar disease control: A (76-100)
Zymoseptoria tritici; [9]
  SEPTTR rating of foliar disease control: A (76-100)
Zymoseptoria tritici; [10]
  SEPTTR rating of foliar disease control: A (76-100)
Zymoseptoria tritici; [11]
  protection against leaf blotch (SEPTTR), in words: excellent protection
Pyricularia oryzae; [6]
  PYRIOR rating of foliar disease control: B (51-75)
Pyricularia oryzae; [7]
  PYRIOR rating of foliar disease control: B (51-75)
Pyricularia oryzae; [8]
  PYRIOR rating of foliar disease control: A (76-100)
Pyricularia oryzae; [9]
  PYRIOR rating of foliar disease control: A (76-100)
Pyricularia oryzae; [10]
  PYRIOR rating of foliar disease control: A (76-100)
Pyricularia oryzae; [12]
  activity on rice blast (PYRIOR), in words: strong activity
[1]; [6]
  ERYSGH rating of foliar disease control: D (0-25)
[1]; [7]
  ERYSGH rating of foliar disease control: A (76-100)
[1]; [8]
  ERYSGH rating of foliar disease control: A (76-100)
[1]; [9]
  ERYSGH rating of foliar disease control: A (76-100)
[1]; [10]
  ERYSGH rating of foliar disease control: A (76-100)
[1]; [13]
  activity on powdery mildew (ERYSGH), in words: excellent activity
Erysiphe cichoracearum; [6]
  ERYSCI rating of foliar disease control: D (0-25)
Erysiphe cichoracearum; [7]
  ERYSCI rating of foliar disease control: D (0-25)
Erysiphe cichoracearum; [8]
  ERYSCI rating of foliar disease control: D (0-25)
Erysiphe cichoracearum; [9]
  ERYSCI rating of foliar disease control: B (51-75)
Erysiphe cichoracearum; [10]
  ERYSCI rating of foliar disease control: A (76-100)
Erysiphe cichoracearum; [14]
  activity on powdery mildew (ERYSCI), in words: moderate activity
Rhynchosporium secalis; [6]
  RHYNSE rating of foliar disease control: D (0-25)
Rhynchosporium secalis; [7]
  RHYNSE rating of foliar disease control: D (0-25)
Rhynchosporium secalis; [8]
  RHYNSE rating of foliar disease control: C (26-50)
Rhynchosporium secalis; [9]
  RHYNSE rating of foliar disease control: B (51-75)
Rhynchosporium secalis; [10]
  RHYNSE rating of foliar disease control: A (76-100)
Rhynchosporium secalis; [13]
  activity on barley scald (RHYNSE), in words: moderate activity
[2]; [6]
  PSEUCU rating of foliar disease control: D (0-25)
[2]; [7]
  PSEUCU rating of foliar disease control: D (0-25)
[2]; [8]
  PSEUCU rating of foliar disease control: D (0-25)
[2]; [9]
  PSEUCU rating of foliar disease control: D (0-25)
[2]; [10]
  PSEUCU rating of foliar disease control: D (0-25)
[2]; [14]
  activity on downy mildew (PSEUCU), in words: little activity
Phakopsora pachyrhizi
  activity on Asian soybean rust (PHAKPA), in words: no activity
Parastagonospora nodorum; [6]
  LEPTNO rating of foliar disease control: A (76-100)
Parastagonospora nodorum; [7]
  LEPTNO rating of foliar disease control: A (76-100)
Parastagonospora nodorum; [8]
  LEPTNO rating of foliar disease control: A (76-100)
Parastagonospora nodorum; [9]
  LEPTNO rating of foliar disease control: A (76-100)
Parastagonospora nodorum; [10]
  LEPTNO rating of foliar disease control: A (76-100)
Parastagonospora nodorum; [11]
  protection against glume blotch (LEPTNO), in words: excellent protection
[3]; [6]
  ERYSGT rating of foliar disease control: D (0-25)
[3]; [7]
  ERYSGT rating of foliar disease control: D (0-25)
[3]; [8]
  ERYSGT rating of foliar disease control: B (51-75)
[3]; [9]
  ERYSGT rating of foliar disease control: A (76-100)
[3]; [10]
  ERYSGT rating of foliar disease control: A (76-100)
[3]; [11]
  activity against powdery mildew (ERYSGT), in words: moderate activity
Cochliobolus sativus; [6]
  COCHSA rating of foliar disease control: D (0-25)
Cochliobolus sativus; [7]
  COCHSA rating of foliar disease control: D (0-25)
Cochliobolus sativus; [8]
  COCHSA rating of foliar disease control: D (0-25)
Cochliobolus sativus; [9]
  COCHSA rating of foliar disease control: D (0-25)
Cochliobolus sativus; [10]
  COCHSA rating of foliar disease control: D (0-25)
Cochliobolus sativus; [13]
  activity on spot blotch (COCHSA), in words: little activity
[4]
  stunting or phytotoxicity: no evidence of stunting or phytotoxicity
Rhizoctonia solani; [6]
  RHIZSO rating of foliar disease control: D (0-25)
Rhizoctonia solani; [7]
  RHIZSO rating of foliar disease control: D (0-25)
Rhizoctonia solani; [8]
  RHIZSO rating of foliar disease control: D (0-25)
Rhizoctonia solani; [9]
  RHIZSO rating of foliar disease control: D (0-25)
Rhizoctonia solani; [10]
  RHIZSO rating of foliar disease control: D (0-25)
Rhizoctonia solani; [12]
  activity on rice sheath blight (RHIZSO), in words: little activity
[5]; [6]
  COLLLA rating of foliar disease control: D (0-25)
[5]; [7]
  COLLLA rating of foliar disease control: B (51-75)
[5]; [8]
  COLLLA rating of foliar disease control: B (51-75)
[5]; [9]
  COLLLA rating of foliar disease control: A (76-100)
[5]; [10]
  COLLLA rating of foliar disease control: A (76-100)
[5]; [14]
  activity on anthracnose (COLLLA), in words: strong activity
